Patent publication US6521633B2, “Treating NIDDM with RXR agonists” (Ligand Pharmaceuticals Incorporated, priority 1995, dated 2003)

What was measured:
[1] = test system: 3T3-LI cells; experiment: Oil red O staining of differentiating 3T3-LI adipocytes; format: cell-based, mouse; settings: for Percent of Differentiated Cells: 3T3-L1, BRL 49653 and LG 100268 at 1 μM; for Percent of Differentiated Cells / cells induced to differentiate into adipocytes: insulin at 0.01 mg/ml; for cells induced to differentiate into adipocytes: BRL 49653 and retinoid at 1 μM
From the text: They are contact inhibited and can be induced to differentiate into adipocyte cells containing large lipid droplets within the cytoplasm. Adipocyte differentiation can be observed by oil red O staining which stains the lipid droplets within the cytoplasm red. The extent of adipocyte differentiation can then be monitored by microscope observation.

[2] = test system: C3H/10T1/2 cells; experiment: Oil red O staining of C3H/10T1/2 cells; format: cell-based, mouse; settings: for Experiment B (+BRL + Insulin) % differentiated cells / Experiment A (+BRL) % differentiated cells: 7 days; for effect on differentiation induced by BRL 49653 or BRL/insulin: in combination with BRL 49653
[3] = test system: 3T3-LI cells; experiment: 96-well plate triglyceride accumulation assay in differentiating adipocytes; format: cell-based, mouse; settings: for triglyceride accumulation: retinoids and BRL 49653 at 1 μM, insulin at 0.01 mg/ml, alone or all together; for triglyceride accumulation on addition of retinoid with BRL 49653: retinoid 1 μM with BRL 49653 1 μM
From the text: For a more quantitative assay and rapid screening of compounds, a 96-well plate assay was developed to quantitate the amount of triglyceride produced by the differentiating adipocytes. […] The level of triglyceride accumulation can then be measured via an enzymatic color reaction which can be read in a plate reader. The retinoid modulation of lipid formation was quantitated by monitoring triglyceride formation.

[4] = test system: 3T3-L1 cells; experiment: Insulin stimulated labeled 2-deoxyglucose uptake assay; format: cell-based, mouse; settings: 3T3-L1 treated 10 days; BRL 49653 or LG 100268 (1 μM); insulin 0.01 mg/ml for 5 days; normalized to total cellular protein
Method: A fourth indicator for the utility of a compound in treating NIDDM or insulin-resistant diabetes is the compound's, ability to enhance insulin-stimulated glucose uptake. Labeled 2-deoxyglucose (2-DOG, a glucose analog) assay was performed with a preadipocyte cell line in the presence of insulin and a candidate compound to measure the level of 2-DOG incorporation.
A murine preadipocyte cell line, 3T3-L1, is widely used to study glucose uptake, adipogenesis, and has been used in the characterization of thiazolidinediones and other PPARγ activators.
Insulin was added to the cells at a concentration of 0.01 mg/ml for 5 days, thereafter no insulin was added. […] The level of incorporated labeled 2-DOG was normalized to the amount of total cellular protein.

[5] = test system: db/db mice; experiment: In vivo experiment with db/db mice; settings: for increase of HDL-cholesterol levels in comparison to controls: BRL 49653, or combination, terminal serum, precipitation method; for lowering of the level of glucose in comparison to control: BRL 49653 1 mg/kg, LG 100268 20 mg/kg, or combination
Method: Animals: Strain Diabetic C57BLKS/Jm+/+db, 82 mice
Mice were identified by an ear punch code (#1-82) and separated into 8 groups (A-H). Each group consisted of 10 mice separated into 4 cages with 2-3 mice/cage. […] Control group C consisted of 12 mice. […] Food and water were provided ad libitum. Food intake/cage was measured over selected periods and expressed as g food consumed/100 g mouse/day.
(§1) On days of study, food was removed from the cages at selected intervals of time between 6:15 and 7:00 AM. Animal weights were recorded 2 h after start of fast and blood samples taken after a 3 h fast. Blood was drawn from a cut at the tip of the tail and collected into a heparinized capillary tube (approx. 75 μl volume). After centrifugation, the hematocrit was read in a microcapillary reader, recorded and the tube broken for recovery of plasma for analysis of glucose, triglyceride and insulin concentration.
Blood samples were collected on days 0−1,0, 3, 7, 10, and on the final day of study, days 13-15. […] The various solutions were gavaged daily to their respective groups based on the animals weight taken that morning or the weight of the animal taken on the preceding day of weighing. To assess alterations in plasma FFA, on day 10 an addition 75 μl blood sample was collected into an EDTA-coated capillary tube immediately after collecting the basal heparinized capillary tube sample.
On the final day of study, mice were not gavaged with test solution. The last gavage was administered on the day preceding the final day, i.e., day 12 for animals terminated on day 13, day 13 for animals terminated on day 14 and day 14 for animals terminated on day 15. Terminal blood was collected by decapitation to provide serum for assessment of HDL.

[6] = test system: ob/ob mice; experiment: In vivo experiment with ob/ob mice; settings: mouse
Method: Each group consisting of 10 mice.
as §1
Blood samples were collected on days 0−3, 0, 3, 6, 8, 10, 14±1 and final collections were made on days 15, 16 or 17. FFA samples were collected on day 10 by drawing a second 75 μl blood sample in a non-heparinized tube coated with EDTA. This tube was collected immediately after the heparinized tube collection.
Animals in groups H were administered control gavage solution (0.6 ml/42 g) daily commencing on day 0 and ending on the day preceding the final day. 11 test solutions were administered to animals in groups designated A-G, I-L. All gavage solutions were administered after refeeding on days in which mice were fasted for blood sampling.

[7] = test system: LPL (lipoprotein lipase) mRNA and PPARγ mRNA; experiment: Northern blot analysis of adipocyte specific genes in 3T3-LI cells; format: cell-based, mouse; settings: 3T3-LI treated for 7 days; BRL 49653 1 μM, LG 100268 1 μM, insulin 0.01 mg/ml
Method: A third measure of adipocyte differentiation is to examine regulation of gene expression. […] Northern blot analysis was used to dissect the molecular aspects of how retinoids effect target genes of differentiating adipocytes. PPARγ, lipoprotein lipase (LPL), and β-actin (loading control) mRNA levels were monitored after cells were treated with thiazolidinediones and retinoids.
Adipocyte specific genes were monitored via northern blot analysis.

[8] = BRL 0.1 μM + insulin 0.01 mg/ml, alone or plus ALRT 1057 1 μM or LGD 1069 1 μM
[9] = BRL 0.1 μM alone or plus ALRT 1057 1 μM, LGD 1069 1 μM or TTNPB 10 nM
[10] = BRL 10 μM + insulin 0.01 mg/ml, alone or plus ALRT 1057 1 μM, LGD 1069 1 μM or TTNPB 10 nM
[11] = BRL 10 μM alone or plus ALRT 1057 1 μM, LGD 1069 1 μM or TTNPB 10 nM
[12] = middle group r17-r20, headed BRL (0.1 μM), + insulin 0.01 mg/ml, alone or plus ALRT 1057 1 μM, LGD 1069 1 μM or TTNPB 10 nM
[13] = middle group r17-r20, headed BRL (0.1 μM), alone or plus ALRT 1057 1 μM, LGD 1069 1 μM or TTNPB 10 nM

Row | Molecule | amount of adipocyte differentiation when used in combination with BRL 49653 ([1]; 3T3-LI) | Experiment B (+BRL + Insulin) % differentiated cells [2, 8] [%] | Experiment A (+BRL) % differentiated cells [2, 9] [%] | Experiment B (+BRL + Insulin) % differentiated cells [2, 10] [%] | Experiment A (+BRL) % differentiated cells [2, 11] [%] | effect on differentiation induced by BRL 49653 or BRL/insulin [2] | Experiment B (+BRL + Insulin) % differentiated cells [2, 12] [%] | Experiment A (+BRL) % differentiated cells [2, 13] [%] | Percent of Differentiated Cells [1] [%] | cells induced to differentiate into adipocytes ([1]; 3T3-LI) [%] | triglyceride accumulation [3] | increase in 2-DOG uptake [4] | increase of HDL-cholesterol levels in comparison to controls ([5]; LG 100268 20 mg/kg) | lowering of the level of glucose in comparison to control ([5]; daily gavage, by day 15) [%] | lipid droplets within the cytoplasm ([1]; 3T3-LI, LG 100268 at 1 μM) | triglyceride accumulation on addition of retinoid with BRL 49653 [3] | lowering of the level of triglycerides ([5]; daily gavage, LG 100268 20 mg/kg, BRL 49653 1 mg/kg, or combination, by day 15) [%] | lowering of the level of glucose in comparison to control [6] [%] | LPL and PPARγ mRNA levels, relative signal normalized to β-actin [7]
1 | CC1=C(/C=C/C(C)=C\C=C\C(C)=C\C(=O)O)C(C)(C)CCC1 [ALRT 1057, 9-cis retinoic acid] | increased the amount of differentiation | 65 | 45 | 99 | 80 | large increase in the amount of differentiation | 90 | 65 | – | – | – | – | – | – | – | – | – | – | –
2 | CN(CCOc1ccc(CC2SC(=O)NC2=O)cc1)c1ccccn1 (stereo not shown) [BRL 49653, 5-[[4-[2-(methyl-2-pyridinylamino)ethoxy]phenyl]methyl]-2,4-thiazolidinedione, reference compound] | – | – | – | – | – | – | – | – | 50 | 50 | induced some triglyceride accumulation | About 5 fold | equivalent level of increase | 40 | – | – | – | – | –
3 | Cc1cc2c(cc1C1(c3ccc(C(=O)O)cn3)CC1)C(C)(C)CCC2(C)C [LG 100268, 2-[1-(3,5,5,8,8-pentamethyl-5,6,7,8-tetrahydro-2-naphthyl)-cyclopropyl]-pyridine-5-carboxylic acid] | increased dramatically | – | – | – | – | – | – | – | 50 | 50 | largest response | About 2 fold | 20% | 40 | bigger redder lipid droplets | increased the amount of triglyceride accumulation | 46 | ~50 | –
4 | C=C(c1ccc(C(=O)O)cc1)c1cc2c(cc1C)C(C)(C)CCC2(C)C [LGD 1069] | increased the amount of differentiation | 90 | 45 | 99 | 80 | large increase in the amount of differentiation | 90 | 65 | – | – | – | – | – | – | – | increased the amount of triglyceride accumulation | – | – | –
5 | C/C(=C\c1ccc(C(=O)O)cc1)c1ccc2c(c1)C(C)(C)CCC2(C)C [TTNPB, reference compound] | – | – | 0.2 | 50 | 5 | inhibited the differentiation | 30 | 2 | – | – | – | – | – | – | – | – | – | – | –
6 | Insulin: insulin, used at 0.01 mg/ml | – | – | – | – | – | – | – | – | 20 | – | induced some triglyceride accumulation | – | – | – | – | – | – | – | three to five fold increase
